In data set [1] the target is Luciferin 4-monooxygenase (Photinus pyralis) (UniProt P08659). Put plainly: Inhibition of recombinant firefly luciferase at 1 nM after 20 mins by luminescence assay.
The target is the same in data set [2]. As to the kind of experiment: Noncompetitive inhibition of recombinant firefly luciferase using luciferin as substrate at 1 to 100 nM after 30 min by Michaelis-Menten plot analysis.
Data set [3] shares this target. Put plainly: Inhibition of recombinant firefly luciferase activity expressed in U87 cells at 10 uM after 2 mins. The class given is cell-based. The following applies: U-87MG ATCC.
Data set [4] can be described thus: Cytotoxicity against human U87 cells assessed as cell viability at 10 uM after 6 hrs by propidium iodide staining-based fluorescence assay. Particulars: u-87mg atcc.
For data set [5], the target named is Luciferin 4-monooxygenase (Photinus pyralis) (UniProt P08659). Put plainly: Inhibition of recombinant firefly luciferase activity expressed in U87 cells at 10 uM after 48 hrs. In kind it is cell-based. Particulars: U-87MG ATCC.
Data set [6] has the same target. As to the kind of experiment: Inhibition of recombinant firefly luciferase at 10 uM after 20 mins by luminescence assay.
Data set [7] shares this target. Put plainly: Noncompetitive inhibition of recombinant firefly luciferase using ATP as substrate at 1 to 100 nM after 30 mins by Michaelis-Menten plot analysis.
Data set [8] shares this target. As to the kind of experiment: Reversible inhibition of recombinant firefly luciferase incubated for 30 mins measured post compound wash-out by luminescence assay.
Data set [9] deals with T1, Coelenterazine h 2-monooxygenase (Renilla reniformis) (UniProt P27652).
T1 sequence (whole entry): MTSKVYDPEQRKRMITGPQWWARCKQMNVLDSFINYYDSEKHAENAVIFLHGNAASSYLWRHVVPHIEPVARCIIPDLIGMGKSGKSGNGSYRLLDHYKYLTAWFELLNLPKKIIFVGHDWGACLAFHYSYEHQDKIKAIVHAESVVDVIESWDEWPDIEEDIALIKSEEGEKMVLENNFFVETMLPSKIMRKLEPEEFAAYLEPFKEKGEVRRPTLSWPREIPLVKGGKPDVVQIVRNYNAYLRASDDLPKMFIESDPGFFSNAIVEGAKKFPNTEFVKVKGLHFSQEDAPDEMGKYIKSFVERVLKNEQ
As to the kind of experiment: Inhibition of sea pansy luciferase after 20 mins by luminescence assay.

In data set [10] the target is Luciferin 4-monooxygenase (Photinus pyralis, UniProt P08659). As to the kind of experiment: Inhibition of recombinant firefly luciferase after 20 mins by luminescence assay.
Sequence of Luciferin 4-monooxygenase (P08659 whole entry): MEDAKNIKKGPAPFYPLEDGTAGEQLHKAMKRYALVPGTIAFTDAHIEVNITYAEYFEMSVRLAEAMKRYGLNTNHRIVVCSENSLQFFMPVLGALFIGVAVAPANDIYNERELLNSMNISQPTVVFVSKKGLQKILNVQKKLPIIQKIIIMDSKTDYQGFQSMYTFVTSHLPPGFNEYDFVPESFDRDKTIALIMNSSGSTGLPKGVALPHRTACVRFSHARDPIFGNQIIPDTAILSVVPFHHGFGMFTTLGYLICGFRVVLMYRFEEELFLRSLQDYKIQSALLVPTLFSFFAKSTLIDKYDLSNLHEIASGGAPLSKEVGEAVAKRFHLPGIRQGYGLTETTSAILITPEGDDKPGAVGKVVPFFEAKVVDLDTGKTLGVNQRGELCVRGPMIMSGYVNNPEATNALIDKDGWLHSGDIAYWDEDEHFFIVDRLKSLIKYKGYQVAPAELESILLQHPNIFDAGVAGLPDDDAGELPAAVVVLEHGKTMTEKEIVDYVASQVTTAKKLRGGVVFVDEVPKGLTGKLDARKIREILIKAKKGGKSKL
The target in data set [11] is Luciferin 4-monooxygenase (Photinus pyralis) (UniProt P08659). As to the kind of experiment: Noncovalent inhibition of recombinant firefly luciferase assessed as inhibition of enzyme-compound adduct formation at 10 uM after 5 mins by SDS-PAGE based liquid scintillation counting analysis. Particulars: tested as the 14C-labelled form.

The source made the active and inactive calls. The calls are words filed in the database; no cut-off is given here.

Sequence of Luciferin 4-monooxygenase (Photinus pyralis) (P08659 whole entry): as above

`Clc1ccc(C2=NO[C@H](Cc3ccccc3)C2)cc1`: the inhibition amounted to 72.8% in [1] and 99.8% in data set [6]. The inhibition entry in [2], in [3], in data set [5], in data set [7] and in [8] was “Active” in each case. Also, in data set [4], the Activity entry is listed as “Non-toxic”. Besides, in [9], the inhibition result is “inactive”. In data set [10], the IC50 is 0.257 nM.
Consider `COc1ccc(C2=NO[C@H](Cc3ccccc3)C2)cc1`, for which the inhibition worked out at 70.9% in [1] and 99.8% in [6]. Also, the inhibition result in data set [2], in data set [3], in data set [5] and in [7] was “Active” throughout. Also, the IC50 in [10] is 0.288 nM.
`N#Cc1ccc(C2=NOC(Cc3ccccc3)C2)cc1` (racemic): in data set [11], the inhibition result was “Active”.
For the compound `Fc1ccc(C2=NO[C@H](Cc3ccccc3)C2)cc1`, the inhibition in [1] was determined as 76.8%; in [6], 99.5%. Besides, in data set [10], the IC50 is 0.309 nM.
The corresponding values for `COc1ccc(C2=NO[C@H](Cc3ccccc3OC)C2)cc1` are 46.5%, 98.8% and 1.82 nM.
The corresponding values for `Oc1ccccc1C1=NO[C@H](Cc2ccccc2)C1` are 48.1%, 98.4% and 1.95 nM.
Consider `c1ccc(C[C@H]2CC(c3ccc4ccccc4c3)=NO2)cc1`, for which the figures for the inhibition in [1] and in data set [6] were 4.9% and 31.5%, respectively. Also, in data set [10], the pIC50 is recorded as greater than 5.

By inhibition is commonly meant the share of the control response that was lost under treatment. A word on the IC50: it is the point on the concentration scale where inhibition reaches its midpoint. Broadly, the pIC50 is −log10 of the IC50, conventionally taken in molar units.
